Data: paper PMC5612656, “In vitro and in vivo effects of 2,4 diaminoquinazoline inhibitors of the decapping scavenger enzyme DcpS: Context-specific modulation of SMN transcript levels” (PLoS ONE, 2017)

System: spinal cord transcriptome
Test: RNA-Seq of spinal cord tissue from 2B/- and 2B/+ mice
Format: in vivo, mouse
Conditions: 2B-Veh vs 2B-RG3039

Q: Which “log2(fold-change) Slc16a3” value does the source give for Nc1nc(N)c2c(OCC3CCN(Cc4c(Cl)cccc4Cl)CC3)cccc2n1 [RG3039] here?
A: The value was -0.7903.

Q: And the “log2(fold-change) Slc16a9” value?
A: Its value is -0.6931.

Q: And the “log2(fold-change) Slc24a4” value?
A: Its value is -0.7011.

Q: What about the “log2(fold-change) Slc25a34” value of the same compound?
A: The value was -1.809.

Q: What about the “log2(fold-change) Slc38a5” value of the same compound?
A: Its value is 1.057.

Q: And the “log2(fold-change) Slc43a2” value?
A: The value was -0.4622.

Q: What about the “log2(fold-change) Smim3” value of the same compound?
A: Its value is -1.398.

Q: And the “log2(fold-change) Sox7” value?
A: Its value is 0.9813.

Q: And the “log2(fold-change) Sspo” value?
A: Its value is -0.7538.

Q: And the “log2(fold-change) Steap3” value?
A: The value was 0.5769.

Q: What about the “log2(fold-change) Sult1a1” value of the same compound?
A: The value was -1.637.

Q: And the “log2(fold-change) T2” value?
A: Its value is -0.674.

Q: And the “log2(fold-change) Thbd” value?
A: The value was 0.6475.

Q: What about the “log2(fold-change) Tjap1” value of the same compound?
A: Its value is -0.5932.

Q: And the “log2(fold-change) Tmem52” value?
A: The value was -2.209.

Q: What about the “log2(fold-change) Tmem82” value of the same compound?
A: Its value is -2.075.

Q: What about the “log2(fold-change) Tnc” value of the same compound?
A: Its value is 1.175.

Q: What about the “log2(fold-change) Tnfrsf11b” value of the same compound?
A: Its value is 0.7466.

Q: What about the “log2(fold-change) Tnfsf10” value of the same compound?
A: The value was 1.316.

Q: And the “log2(fold-change) Top2a” value?
A: Its value is 0.5734.

Q: What about the “log2(fold-change) Trim17” value of the same compound?
A: The value was -0.4978.

Q: What about the “log2(fold-change) Trim63” value of the same compound?
A: The value was -1.544.

Q: And the “log2(fold-change) Txnip” value?
A: The value was -1.514.

Q: What about the “log2(fold-change) Ube2c” value of the same compound?
A: Its value is 0.4464.

Q: What about the “log2(fold-change) Uhrf1” value of the same compound?
A: The value was 0.8234.

Q: And the “log2(fold-change) Vegfc” value?
A: The value was 0.6909.

Q: What about the “log2(fold-change) Wfdc18” value of the same compound?
A: Its value is -1.041.

Q: What about the “log2(fold-change) Wnt7a” value of the same compound?
A: The value was 1.48.

Q: And the “log2(fold-change) Zbtb16” value?
A: The value was -1.136.

Q: And the “log2(fold-change) Zfand4” value?
A: The value was -0.6603.

Q: What about the “log2(fold-change)” value (gene 1110032A03Rik) of the same compound?
A: The value was -0.2821.

Q: What about the “log2(fold-change)” value (gene Acsbg1) of the same compound?
A: The value was -0.2673.

Q: What about the “log2(fold-change)” value (gene Adam15) of the same compound?
A: The value was -0.3484.

Q: And the “log2(fold-change)” value (gene Adi1)?
A: The value was -0.4121.

Q: And the “log2(fold-change)” value (gene Adra1b)?
A: The value was 0.2729.

Q: What about the “log2(fold-change)” value (gene Aff1) of the same compound?
A: Its value is -0.2665.

Q: And the “log2(fold-change)” value (gene Ak3)?
A: Its value is -0.3763.

Q: What about the “log2(fold-change)” value (gene Aldh1l1) of the same compound?
A: Its value is -0.3854.

Q: What about the “log2(fold-change)” value (gene Aldoc) of the same compound?
A: Its value is -0.3499.

Q: What about the “log2(fold-change)” value (gene Amz1) of the same compound?
A: Its value is 0.2752.

Q: And the “log2(fold-change)” value (gene Ap5z1)?
A: Its value is -0.356.

Q: And the “log2(fold-change)” value (gene Aqp11)?
A: The value was -0.2575.

Q: And the “log2(fold-change)” value (gene Arsk)?
A: Its value is -0.2986.

Q: And the “log2(fold-change)” value (gene B3gnt9)?
A: The value was -0.2654.

Q: And the “log2(fold-change)” value (gene Bahd1)?
A: The value was 0.2771.

Q: What about the “log2(fold-change)” value (gene Boc) of the same compound?
A: The value was -0.2865.

Q: What about the “log2(fold-change)” value (gene Calr) of the same compound?
A: The value was 0.1683.

Q: What about the “log2(fold-change)” value (gene Ccdc41os1) of the same compound?
A: Its value is -0.2491.

Q: And the “log2(fold-change)” value (gene Ccdc117)?
A: Its value is 0.2458.

Q: And the “log2(fold-change)” value (gene Ccnyl1)?
A: The value was 0.3378.

Q: And the “log2(fold-change)” value (gene Cdc25a)?
A: The value was 0.2456.

Q: And the “log2(fold-change)” value (gene Clmp)?
A: The value was 0.2336.

Q: What about the “log2(fold-change)” value (gene Cntfr) of the same compound?
A: Its value is -0.3422.

Q: And the “log2(fold-change)” value (gene Col9a3)?
A: The value was 0.1971.

Q: And the “log2(fold-change)” value (gene Cpt1c)?
A: The value was -0.278.

Q: What about the “log2(fold-change)” value (gene Crabp1) of the same compound?
A: The value was 0.2782.

Q: And the “log2(fold-change)” value (gene Cryz)?
A: Its value is -0.1892.

Q: And the “log2(fold-change)” value (gene Daam2)?
A: The value was -0.2024.

Q: What about the “log2(fold-change)” value (gene Darc) of the same compound?
A: The value was 0.1786.

Q: What about the “log2(fold-change)” value (gene Decr1) of the same compound?
A: Its value is -0.3016.

Q: What about the “log2(fold-change)” value (gene Dnm2) of the same compound?
A: Its value is -0.2166.

Q: What about the “log2(fold-change)” value (gene Efnb3) of the same compound?
A: The value was -0.3581.

Q: And the “log2(fold-change)” value (gene Elmo2)?
A: Its value is 0.364.

Q: And the “log2(fold-change)” value (gene Eltd1)?
A: Its value is -0.2627.

Q: And the “log2(fold-change)” value (gene Fkbp10)?
A: The value was 0.3165.

Q: What about the “log2(fold-change)” value (gene Fmnl3) of the same compound?
A: Its value is 0.3298.

Q: And the “log2(fold-change)” value (gene Foxo3)?
A: Its value is -0.2832.

Q: What about the “log2(fold-change)” value (gene Gpt2) of the same compound?
A: Its value is -0.2642.

Q: What about the “log2(fold-change)” value (gene Gstt1) of the same compound?
A: The value was -0.358.

Q: And the “log2(fold-change)” value (gene Hapln2)?
A: Its value is -0.2887.

Q: And the “log2(fold-change)” value (gene Hmgcr)?
A: The value was 0.3374.

Q: And the “log2(fold-change)” value (gene Hopx)?
A: Its value is 0.2486.

Q: What about the “log2(fold-change)” value (gene Hsdl2) of the same compound?
A: The value was -0.1941.

Q: What about the “log2(fold-change)” value (gene Itfg3) of the same compound?
A: The value was -0.4076.

Q: What about the “log2(fold-change)” value (gene Ivd) of the same compound?
A: Its value is -0.3584.

Q: And the “log2(fold-change)” value (gene Kctd3)?
A: Its value is -0.3771.

Q: And the “log2(fold-change)” value (gene Kctd15)?
A: The value was 0.2608.

Q: What about the “log2(fold-change)” value (gene Kpna2) of the same compound?
A: Its value is 0.269.

Q: And the “log2(fold-change)” value (gene Lpcat1)?
A: The value was 0.2395.

Q: What about the “log2(fold-change)” value (gene Lrrc1) of the same compound?
A: The value was -0.4303.

Q: What about the “log2(fold-change)” value (gene Lxn) of the same compound?
A: Its value is 0.285.

Q: What about the “log2(fold-change)” value (gene Maged2) of the same compound?
A: The value was 0.2097.

Q: What about the “log2(fold-change)” value (gene Megf9) of the same compound?
A: The value was -0.283.

Q: And the “log2(fold-change)” value (gene Megf11)?
A: The value was 0.3115.

Q: What about the “log2(fold-change)” value (gene Mmp15) of the same compound?
A: The value was 0.2397.

Q: And the “log2(fold-change)” value (gene Msi1)?
A: Its value is 0.3899.

Q: And the “log2(fold-change)” value (gene Mterfd3)?
A: The value was -0.3526.

Q: And the “log2(fold-change)” value (gene Ngef)?
A: Its value is 0.3246.

Q: What about the “log2(fold-change)” value (gene Nid1) of the same compound?
A: Its value is 0.3048.

Q: And the “log2(fold-change)” value (gene Npl)?
A: Its value is 0.2963.

Q: What about the “log2(fold-change)” value (gene Nr2f1) of the same compound?
A: Its value is 0.3426.

Q: And the “log2(fold-change)” value (gene Nrbp2)?
A: The value was -0.2827.

Q: And the “log2(fold-change)” value (gene Nrep)?
A: The value was 0.3402.
